System: MV-4-11 cells
Test: Gene expression microarray analysis (Affymetrix PrimeView) and GSEA
Format: cell-based, human
Set-up: RFU PODN (11730768_x_at) / Fold change /veh PODN (11730768_x_at) / RFU LINC00158 (11744669_a_at) / Fold change /veh LINC00158 (11744669_a_at) / RFU DUSP10 (11751237_a_at) / Fold change /veh DUSP10 (11751237_a_at) / RFU ID3 (11757404_x_at) / Fold change /veh ID3 (11757404_x_at) / RFU PLEKHG5 (11737974_s_at) / Fold change /veh PLEKHG5 (11737974_s_at) / RFU LRRC4B (11730491_at) / Fold change /veh LRRC4B (11730491_at) / RFU GIMAP4 (11747438_a_at) / Fold change /veh GIMAP4 (11747438_a_at) / RFU KRT8 (11758183_x_at) / Fold change /veh KRT8 (11758183_x_at) / RFU CNN1 (11734310_a_at) / Fold change /veh CNN1 (11734310_a_at) / RFU VPS37D (11726825_at) / Fold change /veh VPS37D (11726825_at) / RFU C10orf10 (11716522_x_at) / Fold change /veh C10orf10 (11716522_x_at) / RFU KIR2DL2 /// KIR2DL4 /// KIR2DL5A /// KIR2DL5B /// KIR2DS1 /// KIR2DS2 /// KIR2DS3 /// KIR2DS4 /// KIR3DL3 /// KIR3DL3 /// KIR3DS1 (11738374_at) / Fold change /veh KIR2DL2 /// KIR2DL4 /// KIR2DL5A /// KIR2DL5B /// KIR2DS1 /// KIR2DS2 /// KIR2DS3 /// KIR2DS4 /// KIR3DL3 /// KIR3DL3 /// KIR3DS1 (11738374_at) / RFU C1QL1 (11718748_at) / Fold change /veh C1QL1 (11718748_at) / RFU TMPRSS4 (11747572_a_at) / Fold change /veh TMPRSS4 (11747572_a_at) / RFU HAMP (11756126_x_at) / Fold change /veh HAMP (11756126_x_at) / RFU RNFT2 (11725882_a_at) / Fold change /veh RNFT2 (11725882_a_at) / RFU NR4A2 (11747474_a_at) / Fold change /veh NR4A2 (11747474_a_at) / RFU ABCC12 (11746883_a_at) / Fold change /veh ABCC12 (11746883_a_at) / RFU TMEM136 (11760407_x_at) / Fold change /veh TMEM136 (11760407_x_at) / RFU CLDN22 /// WWC2 (11732394_at) / Fold change /veh CLDN22 /// WWC2 (11732394_at) / RFU HLA-DPB1 (11760878_x_at) / Fold change /veh HLA-DPB1 (11760878_x_at) / RFU SPINT1 (11716480_a_at) / Fold change /veh SPINT1 (11716480_a_at) / RFU GAP43 (11754022_s_at) / Fold change /veh GAP43 (11754022_s_at) / RFU A4GNT (11735810_at) / Fold change /veh A4GNT (11735810_at) / RFU PRB3 (11715151_x_at) / Fold change /veh PRB3 (11715151_x_at) / RFU TUBB4B (11761932_at) / Fold change /veh TUBB4B (11761932_at) / RFU CAPN14 (11732068_a_at) / Fold change /veh CAPN14 (11732068_a_at) / RFU TMCC2 (11721928_a_at) / Fold change /veh TMCC2 (11721928_a_at) / RFU IRGQ (11745062_a_at) / Fold change /veh IRGQ (11745062_a_at) / RFU FAM174B (11720279_a_at) / Fold change /veh FAM174B (11720279_a_at) / RFU TMPRSS4 (11748680_a_at) / Fold change /veh TMPRSS4 (11748680_a_at) / RFU FAM212B (11763350_a_at) / Fold change /veh FAM212B (11763350_a_at) / RFU PLEKHG5 (11743358_a_at) / Fold change /veh PLEKHG5 (11743358_a_at) / RFU ZSCAN30 (11745921_a_at) / Fold change /veh ZSCAN30 (11745921_a_at) / RFU CMKLR1 (11741424_a_at) / Fold change /veh CMKLR1 (11741424_a_at) / RFU LOC101060620 /// MAPK8IP1 (11723275_at) / Fold change /veh LOC101060620 /// MAPK8IP1 (11723275_at) / RFU SPTSSB (11747773_x_at) / Fold change /veh SPTSSB (11747773_x_at) / RFU PRSS12 (11739890_at) / Fold change /veh PRSS12 (11739890_at) / RFU BIN1 (11741810_x_at) / Fold change /veh BIN1 (11741810_x_at) / RFU WNT11 (11732464_a_at) / Fold change /veh WNT11 (11732464_a_at) / RFU C10orf10 (11716521_a_at) / Fold change /veh C10orf10 (11716521_a_at) / RFU C5orf56 (11738089_at) / Fold change /veh C5orf56 (11738089_at) / RFU CYB561 (11721691_x_at) / Fold change /veh CYB561 (11721691_x_at) / RFU ANKRD19P (11752326_a_at) / Fold change /veh ANKRD19P (11752326_a_at) / RFU OR2T12 /// OR2T33 /// OR2T8 (11738714_s_at) / Fold change /veh OR2T12 /// OR2T33 /// OR2T8 (11738714_s_at) / RFU VCAN (11748164_a_at) / Fold change /veh VCAN (11748164_a_at) / RFU JSRP1 (11732532_at) / Fold change /veh JSRP1 (11732532_at) / RFU KRTAP10-11 (11738290_x_at) / Fold change /veh KRTAP10-11 (11738290_x_at) / RFU MYO3A (11730013_a_at) / Fold change /veh MYO3A (11730013_a_at) / RFU EBF3 (11725865_a_at) / Fold change /veh EBF3 (11725865_a_at) / RFU CAMK2N1 (11719241_x_at) / Fold change /veh CAMK2N1 (11719241_x_at) / RFU C5orf56 (11738088_a_at) / Fold change /veh C5orf56 (11738088_a_at) / RFU OLFML3 (11715873_a_at) / Fold change /veh OLFML3 (11715873_a_at) / RFU LOC100653217 /// NTM (11731650_a_at) / Fold change /veh LOC100653217 /// NTM (11731650_a_at) / RFU MAPK11 (11762145_a_at) / Fold change /veh MAPK11 (11762145_a_at) / RFU FIZ1 (11724087_x_at) / Fold change /veh FIZ1 (11724087_x_at) / RFU OASL (11726364_x_at) / Fold change /veh OASL (11726364_x_at) / RFU SOX15 (11748057_x_at) / Fold change /veh SOX15 (11748057_x_at) / RFU CD79A (11719716_a_at) / Fold change /veh CD79A (11719716_a_at) / RFU HIST1H1D (11736915_at) / Fold change /veh HIST1H1D (11736915_at) / RFU CASKIN2 (11723855_a_at) / Fold change /veh CASKIN2 (11723855_a_at) / RFU LOC730098 (11760151_x_at) / Fold change /veh LOC730098 (11760151_x_at) / RFU OR4N2 (11742367_at) / Fold change /veh OR4N2 (11742367_at) / RFU PRRT2 (11749266_a_at) / Fold change /veh PRRT2 (11749266_a_at) / RFU SNX32 (11753110_a_at) / Fold change /veh SNX32 (11753110_a_at) / RFU CDHR5 (11726645_a_at) / Fold change /veh CDHR5 (11726645_a_at) / RFU RCAN1 (11760418_a_at) / Fold change /veh RCAN1 (11760418_a_at) / RFU FAM167A (11723789_a_at) / Fold change /veh FAM167A (11723789_a_at) / RFU FAM26E (11764081_at) / Fold change /veh FAM26E (11764081_at) / RFU ISYNA1 (11749810_s_at) / Fold change /veh ISYNA1 (11749810_s_at) / RFU ACY1 (11761880_at) / Fold change /veh ACY1 (11761880_at) / RFU 11764098_at / Fold change /veh 11764098_at / RFU SAMD14 (11745864_x_at) / Fold change /veh SAMD14 (11745864_x_at) / RFU NPB (11741838_a_at) / Fold change /veh NPB (11741838_a_at) / RFU TMPRSS6 (11731388_a_at) / Fold change /veh TMPRSS6 (11731388_a_at) / RFU KRTAP10-2 (11738614_at) / Fold change /veh KRTAP10-2 (11738614_at) / RFU ARHGAP8 /// PRR5-ARHGAP8 (11727945_x_at) / Fold change /veh ARHGAP8 /// PRR5-ARHGAP8 (11727945_x_at) / RFU KRTAP5-7 /// NADSYN1 (11734609_at) / Fold change /veh KRTAP5-7 /// NADSYN1 (11734609_at) / RFU RASL12 (11751679_a_at) / Fold change /veh RASL12 (11751679_a_at) / RFU CDKN2B (11736163_a_at) / Fold change /veh CDKN2B (11736163_a_at) / RFU PRF1 (11729649_at) / Fold change /veh PRF1 (11729649_at) / RFU, ZNF638 /// ZNF638-IT1 / Fold change vs veh, ZNF638 /// ZNF638-IT1 / RFU, PANK3 / Fold change vs veh, PANK3 / RFU, SH3YL1 / Fold change vs veh, SH3YL1 / RFU, ZEB2 / Fold change vs veh, ZEB2 / RFU, NRIP1 / Fold change vs veh, NRIP1 / RFU, PTTG1IP / Fold change vs veh, PTTG1IP / RFU, CAPN2 / Fold change vs veh, CAPN2 / RFU, MED14 / Fold change vs veh, MED14 / RFU, SNORA58 / Fold change vs veh, SNORA58 / RFU, C1orf63 / Fold change vs veh, C1orf63 / RFU, LRRFIP1 / Fold change vs veh, LRRFIP1 / RFU, NDUFAF7 / Fold change vs veh, NDUFAF7 / RFU, SLC12A2 / Fold change vs veh, SLC12A2 / RFU, IBTK / Fold change vs veh, IBTK / RFU, ESF1 / Fold change vs veh, ESF1 / Fold change vs veh, TMEM50B / RFU, TAOK1 / Fold change vs veh, TAOK1 / RFU, ACBD3 / Fold change vs veh, ACBD3 / RFU, TMA16 / Fold change vs veh, TMA16 / RFU, RWDD3 / Fold change vs veh, RWDD3 / RFU, BCAT1 / Fold change vs veh, BCAT1 / RFU, EDEM3 / Fold change vs veh, EDEM3 / RFU, TMEM33 / Fold change vs veh, TMEM33 / RFU, WDR75 / Fold change vs veh, WDR75 / RFU, AHCTF1 / Fold change vs veh, AHCTF1 / RFU, TFRC / Fold change vs veh, TFRC / RFU, ZDHHC17 / Fold change vs veh, ZDHHC17 / RFU, NOM1 / Fold change vs veh, NOM1 / RFU, ARL8B / Fold change vs veh, ARL8B / RFU, ZBTB11 / Fold change vs veh, ZBTB11 / RFU, TAMM41 / Fold change vs veh, TAMM41 / RFU, KIAA1704 /// LOC100996395 / Fold change vs veh, KIAA1704 /// LOC100996395 / RFU, ING1 / Fold change vs veh, ING1 / RFU, TRMT61B / Fold change vs veh, TRMT61B / RFU, FUBP3 / Fold change vs veh, FUBP3 / RFU, TP53 / Fold change vs veh, TP53 / RFU, TNKS2 / Fold change vs veh, TNKS2 / RFU, ZFP14 / Fold change vs veh, ZFP14 / RFU, ACTR2 / Fold change vs veh, ACTR2 / RFU, PPP3R1 / Fold change vs veh, PPP3R1 / RFU, PIK3R1 / Fold change vs veh, PIK3R1 / RFU, HNRNPA1 / Fold change vs veh, HNRNPA1 / RFU, RNF170 / Fold change vs veh, RNF170 / RFU, ZNF28 / Fold change vs veh, ZNF28 / RFU, RNGTT / Fold change vs veh, RNGTT / RFU, OGT / Fold change vs veh, OGT / RFU, BRD1 / Fold change vs veh, BRD1 / RFU, MARS / Fold change vs veh, MARS / RFU, ZNF655 / Fold change vs veh, ZNF655 / RFU, FAHD1 / Fold change vs veh, FAHD1 / RFU, BDP1 / Fold change vs veh, BDP1 / RFU, LRRCC1 / Fold change vs veh, LRRCC1 / RFU, ARID1A / Fold change vs veh, ARID1A / RFU, ZNF146 / Fold change vs veh, ZNF146 / RFU, ZNF330 / Fold change vs veh, ZNF330 / RFU, GPN3 / Fold change vs veh, GPN3 / RFU, C9orf123 / Fold change vs veh, C9orf123 / RFU, N4BP2L2 / Fold change vs veh, N4BP2L2 / RFU, ARFIP1 / Fold change vs veh, ARFIP1 / RFU, FAM179B / Fold change vs veh, FAM179B / RFU, BCL10 / Fold change vs veh, BCL10 / RFU, UHRF1BP1L / Fold change vs veh, UHRF1BP1L / RFU, BET1 / Fold change vs veh, BET1 / RFU, CNOT2 / Fold change vs veh, CNOT2 / RFU, ZNF268 / Fold change vs veh, ZNF268 / Fold change vs veh, ZNF507 / RFU, DGCR2 / Fold change vs veh, DGCR2 / RFU, WDSUB1 / Fold change vs veh, WDSUB1 / Fold change vs veh, HSP90B1 /// MIR3652 / RFU, ADSS / Fold change vs veh, ADSS / RFU, GK / Fold change vs veh, GK / RFU, ZNF148 / Fold change vs veh, ZNF148 / RFU, TAF9 / Fold change vs veh, TAF9 / RFU, SLC1A5 / Fold change vs veh, SLC1A5 / RFU, SLMO2 / Fold change vs veh, SLMO2 / RFU, ABCC4 / Fold change vs veh, ABCC4 / RFU, LOC101060439 /// RAP1B / Fold change vs veh, LOC101060439 /// RAP1B / RFU, RFX7 / Fold change vs veh, RFX7 / RFU, GTPBP10 / Fold change vs veh, GTPBP10 / RFU, CNEP1R1 / Fold change vs veh, CNEP1R1 / RFU, BIVM-ERCC5 /// ERCC5 / Fold change vs veh, BIVM-ERCC5 /// ERCC5 / RFU, ILF3 / Fold change vs veh, ILF3 / RFU 11762660_at / Fold change /veh 11762660_at / RFU VCAN (11757783_s_at) / Fold change /veh VCAN (11757783_s_at) / RFU DDX43 (11728927_at) / Fold change /veh DDX43 (11728927_at) / RFU KRT8 (11758188_x_at) / Fold change /veh KRT8 (11758188_x_at) / RFU NKD1 (11759106_at) / Fold change /veh NKD1 (11759106_at) / RFU SRD5A1 (11742802_a_at) / Fold change /veh SRD5A1 (11742802_a_at) / RFU TPSAB1 /// TPSB2 (11721975_s_at) / Fold change /veh TPSAB1 /// TPSB2 (11721975_s_at) / RFU GSTM3 (11746129_a_at) / Fold change /veh GSTM3 (11746129_a_at) / RFU IL23R (11737362_x_at) / Fold change /veh IL23R (11737362_x_at) / RFU TMEM51 (11727254_a_at) / Fold change /veh TMEM51 (11727254_a_at) / RFU PIWIL2 (11732686_x_at) / Fold change /veh PIWIL2 (11732686_x_at) / RFU ORM1 (11744905_x_at) / Fold change /veh ORM1 (11744905_x_at) / RFU CCDC152 (11743942_at) / Fold change /veh CCDC152 (11743942_at) / RFU ECM1 (11717891_a_at) / Fold change /veh ECM1 (11717891_a_at) / RFU IL23R (11748794_a_at) / Fold change /veh IL23R (11748794_a_at) / RFU TNFAIP8L3 (11732012_x_at) / Fold change /veh TNFAIP8L3 (11732012_x_at) / RFU MBOAT4 (11741988_at) / Fold change /veh MBOAT4 (11741988_at) / RFU 11764193_at / Fold change /veh 11764193_at / RFU TMEM53 (11763286_at) / Fold change /veh TMEM53 (11763286_at) / RFU MAGEB2 (11727129_at) / Fold change /veh MAGEB2 (11727129_at) / RFU TMEM200A (11744735_a_at) / Fold change /veh TMEM200A (11744735_a_at) / RFU CCDC152 (11751479_a_at) / Fold change /veh CCDC152 (11751479_a_at) / RFU FAM211A (11726209_a_at) / Fold change /veh FAM211A (11726209_a_at) / RFU RGS16 (11746705_a_at) / Fold change /veh RGS16 (11746705_a_at) / RFU VCAN (11755009_s_at) / Fold change /veh VCAN (11755009_s_at) / RFU RHOB (11743442_s_at) / Fold change /veh RHOB (11743442_s_at) / RFU RGS16 (11720943_a_at) / Fold change /veh RGS16 (11720943_a_at) / RFU RGS16 (11720944_at) / Fold change /veh RGS16 (11720944_at) / RFU, VPS4B / Fold change vs veh, VPS4B / RFU, CREB1 / Fold change vs veh, CREB1 / RFU, DNAJC13 / Fold change vs veh, DNAJC13 / RFU, GNAQ / Fold change vs veh, GNAQ / RFU, CDK5R1 / Fold change vs veh, CDK5R1 / RFU, ZRANB3 / Fold change vs veh, ZRANB3 / RFU, CUL4A / Fold change vs veh, CUL4A / RFU, CCNY / Fold change vs veh, CCNY / RFU, UFL1 / Fold change vs veh, UFL1 / RFU, COG3 / Fold change vs veh, COG3 / RFU, DIAPH2 / Fold change vs veh, DIAPH2 / RFU, SKA2 / Fold change vs veh, SKA2 / RFU, AFF3 / Fold change vs veh, AFF3 / RFU, LMF1 / Fold change vs veh, LMF1 / RFU, IPO11 / Fold change vs veh, IPO11 / RFU, DFFB / Fold change vs veh, DFFB / RFU, FOXP1 / Fold change vs veh, FOXP1 / RFU, CARD8 / Fold change vs veh, CARD8 / RFU, STRN3 / Fold change vs veh, STRN3 / RFU, ADK / Fold change vs veh, ADK / RFU, RASSF2 / Fold change vs veh, RASSF2 / RFU, WIPF1 / Fold change vs veh, WIPF1 / RFU, LARP1B / Fold change vs veh, LARP1B / RFU, RASA1 / Fold change vs veh, RASA1 / RFU, RB1 / Fold change vs veh, RB1 / RFU, PPFIA1 / Fold change vs veh, PPFIA1 / RFU, MAT2A / Fold change vs veh, MAT2A / RFU, CCT5 / Fold change vs veh, CCT5 / RFU, WDR92 / Fold change vs veh, WDR92 / RFU, CUX1 / Fold change vs veh, CUX1 / RFU, TTC7A / Fold change vs veh, TTC7A / RFU, TMEM135 / Fold change vs veh, TMEM135 / RFU, DEPTOR / Fold change vs veh, DEPTOR / RFU, CPM / Fold change vs veh, CPM / RFU, DNAJB6 / Fold change vs veh, DNAJB6 / RFU, CACNA2D3 / Fold change vs veh, CACNA2D3 / RFU, DTX4 / Fold change vs veh, DTX4 / RFU, TFCP2 / Fold change vs veh, TFCP2 / RFU, GMCL1 /// GMCL1P1 / Fold change vs veh, GMCL1 /// GMCL1P1 / RFU, AEBP2 / Fold change vs veh, AEBP2 / RFU, SNHG1 /// SNORD22 /// SNORD25 /// SNORD26 /// SNORD27 /// SNORD28 /// SNORD29 /// SNORD31 / Fold change vs veh, SNHG1 /// SNORD22 /// SNORD25 /// SNORD26 /// SNORD27 /// SNORD28 /// SNORD29 /// SNORD31 / Fold change (Aza/veh), C12orf56 (ProbeSet 11735607_a_at) / Fold change (ACY-1035/veh), C12orf56 (ProbeSet 11735607_a_at) / Fold change (Aza/veh), FGFR1OP (ProbeSet 11751329_s_at) / Fold change (ACY-1035/veh), FGFR1OP (ProbeSet 11751329_s_at) / Fold change (Aza/veh), VPS36 (ProbeSet 11739960_a_at) / Fold change (ACY-1035/veh), VPS36 (ProbeSet 11739960_a_at) / RFU SYPL1 (11715823_x_at) / Fold change /veh SYPL1 (11715823_x_at) / RFU IGFBP7 (11715501_s_at) / Fold change /veh IGFBP7 (11715501_s_at) / RFU REEP3 (11722064_at) / Fold change /veh REEP3 (11722064_at) / RFU IGLL1 (11728026_x_at) / Fold change /veh IGLL1 (11728026_x_at): dose or concentration left out as unconfirmed
Conditions: ProbeSet 11728443_a_at; LIST B

## Nc1ccc(-c2cccs2)cc1NC(=O)c1ccc2c(c1)cc(C1CC1)n2CCN1CCOCC1 [ACY-1035]
  RFU, TAOK1: 54.83 RFU

Source: article PMC5218480 (PLoS ONE, 2017)
